Reference: PubChem BioAssay (NCI)
Where “and” joins values, the source holds several entries; their conditions need not be identical. Equal values may be shown once.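 Step 1: Grow cells in 96-well plates. Step 2: Expose to compound for 48 hours at 5 concentrations. Step 3: Interpolate endpoints linearly; if unreached, use highest concentration. GI50 marks 50% less growth. TGI: concentration producing complete growth inhibition.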

Experiments:
Assay in all cases: inhibition of tumour cell growth, NCI panel, 48 h
HOP-62 NSCLC = system: HOP-62 NSCLC
U251 CNS = system: U251 CNS
SK-OV-3 ovarian = system: SK-OV-3 ovarian
A549 NSCLC = system: A549 NSCLC
SR leukemia = system: SR leukemia
ACHN renal = system: ACHN renal
UACC-257 melanoma = system: UACC-257 melanoma
HS 578T breast = system: HS 578T breast

Row | SMILES | GI50 (HOP-62 NSCLC) | TGI (HOP-62 NSCLC) [µM] | GI50 (U251 CNS) | TGI (U251 CNS) | GI50 (SK-OV-3 ovarian) | TGI (SK-OV-3 ovarian) | GI50 (A549 NSCLC) | TGI (A549 NSCLC) [µM] | GI50 (SR leukemia) | TGI (SR leukemia) [µM] | GI50 (ACHN renal) | TGI (ACHN renal) | GI50 (UACC-257 melanoma) | TGI (UACC-257 melanoma) | GI50 (HS 578T breast) | TGI (HS 578T breast)
1 | O=C(Cc1cc(O)ccc1O)NO | > 100 µM | > 100 | 32.7 µM | > 100 µM | > 100 µM | > 100 µM | 89.4 µM | > 100 | 20.5 µM | 52.6 | > 100 µM | > 100 µM | 59.9 µM | > 100 µM | > 100 µM | > 100 µM
2 | O=C(O)c1ccc(CSc2nc3ccccc3[nH]2)cc1 | > 100 µM | > 100 | > 100 µM | > 100 µM | > 100 µM | > 100 µM | > 100 µM | > 100 | > 100 µM | > 100 | > 100 µM | > 100 µM | > 100 µM | > 100 µM | > 100 µM | > 100 µM
3 | O=C(CCN1CCCCC1)c1csc2ccccc12 |  | > 100 |  | > 100 µM |  | > 100 µM |  | > 100 |  | > 100 |  | > 100 µM |  | > 100 µM |  | > 100 µM
4 | CCc1ccc(Oc2c(-c3ccc(OCCc4cccc(C(F)(F)F)c4)cc3O)n[nH]c2C(F)(F)F)cc1 | 5.76 µM | 12 | 1.81 µM | 6.44 µM | 6.57 µM | 12.9 µM | 4.89 µM | 11.1 | 3.06 µM | 12 | 2.18 µM | 7.66 µM | 4.58 µM | 10.6 µM | 6.04 µM | 15.4 µM
5 | Cn1c2c(c3ccccc31)CCN1C[C@@H]3CCCC[C@H]3C[C@@H]21 | 3.32 µM | > 36.2 | 2.51 µM | > 100 µM | 2.82 µM | 25.6 µM | 3.1 µM | > 100 | 2.96 µM | > 25.8 | 4.32 µM | > 100 µM | 8.14 µM | > 100 µM | 4.51 µM | > 100 µM
6 | CN1C(=O)C(N=Nc2ccc([N+](=O)[O-])cc2)SC1=S (stereo not drawn) | 9.55 µM and 12.2 µM | > 100 | 3.3 µM and 7.63 µM | 70.8 µM and > 100 µM | 7.51 µM and 11.2 µM | 74.4 µM and 51.5 µM | 5.78 µM and 14.1 µM | > 100 | 2.66 µM and 4.47 µM | > 100 | 3.19 µM and 9.51 µM | 99 µM and 62.4 µM | 3.63 µM and 10.9 µM | 27.1 µM and 54.4 µM | 2.47 µM and 16.2 µM | 22.5 µM and > 100 µM
7 | COc1ccc(OC)c(C2=C(c3cn(C)c4ccccc34)C(=O)NC2=O)c1 | > 25 µM | > 25 | > 25 µM | > 25 µM | > 25 µM | > 25 µM | > 25 µM | > 25 | 16.1 µM | > 25 | > 25 µM | > 25 µM | > 25 µM | > 25 µM | > 16.9 µM | > 25 µM
8 | COc1cccc(C(=O)NNc2nc(Cl)nc(N3CCN(C(c4ccccc4)c4ccccc4)CC3)n2)c1 | 8.71 µM | 23.5 | 1.78 µM | 3.51 µM | 13.2 µM | 26 µM | 22.1 µM | 83.6 | 0.852 µM | 4.26 | 1.76 µM | 3.16 µM | 3.06 µM | 11.7 µM | 1.95 µM | 4.9 µM
9 | CC[C@]12C=CCN3CC[C@@]4(c5ccc(OC)cc5N(C)[C@H]4[C@@](O)(C(=O)OC)[C@@H]1OC(=O)CCC(=O)O[C@H]1CC[C@H]4[C@@H]5CCC6=CC(=O)CC[C@@H]6[C@H]5CC[C@]14C)[C@@H]32 | 2.4 µM | > 50 | 1.91 µM | > 50 µM | 2.04 µM | > 50 µM | 1.64 µM | > 50 | 1.52 µM | > 50 | 1.57 µM | > 50 µM | 2.65 µM | > 50 µM | 2.38 µM | > 50 µM
10 | Cn1cc(-c2csc(-c3ccccc3)n2)c2cccnc21 | 15.5 µM | 29.5 | 13.6 µM | 28 µM | 18.7 µM | 43.3 µM | 16.9 µM | 38 | 9.24 µM | 62.4 | 17.1 µM | 52.3 µM | 21.1 µM | 44.4 µM | 11.8 µM | 35.5 µM
11 | CCOC(=O)c1c(-c2ccccc2)n2c(=O)cc(C)c3c(O)c(O)cc1c32 | 11.1 µM | 54.5 | 4.98 µM | 22.7 µM | 16 µM | > 100 µM | 5.46 µM | 24.6 | 3.59 µM | 17.5 | 5.94 µM | 43.1 µM | 6.38 µM | 28.7 µM | 14.7 µM | 56.6 µM
